Test results as given in US5905036A, “Characterization of organic contaminants and assessment of remediation performance in subsurface formations” (Board Of Regents, The University of Texas System, priority 1997, dated 1999).
Entries after “also recorded” stand apart in the source; their conditions may differ. Like-named read-outs stand apart in the source and are kept apart here.

Experiments:
[1] = Tracer injection into uncontaminated secondary column (Example 3); assay type: physicochemical; conditions: for adsorption: inferred; for mean residence time: method of moments
Description: A secondary, uncontaminated column was packed and configured in the same manner as the contaminated column. The only modification made to this column was that the volume of water was equal to the volume of water plus TCE in the primary column. This secondary column was used to observe tracer behavior in an uncontaminated environment.
Before tracer injection began in the primary column, argon and C6 F12 were injected into the secondary column. Their breakthrough curves are plotted in FIG. 3. Using this procedure, the gas saturation in the secondary column would be similar to that in the primary column. The secondary column was first allowed to equilibrate. […] The C6 F12 was injected as a liquid through the heated injection port. The injector temperature was 40° C.; the liquid was vaporized and moved through the column as a gas. […] When mixed with air, however, they become gases.
The mean residence times should be equal since there is no TCE for the tracer to partition into. […] The flatness of the peak is believed to be a result of the fact that the liquid vaporizes slowly.

[2] = Partitioning tracer column experiment, Ottawa sand contaminated with TCE, air carrier (Example 3); conditions: for Mean Residence Times ti / Mean Residence Times ti (cc) / Activity Coefficient, γi: 0.45 cc/min; for partitioning into TCE (in words): Ottawa sand column; for Activity Coefficient, γi: in TCE, ideal Ki / experimental Ki
Description: Three columns were prepared for each experiment: (1) a contaminated primary column (2.5 cm×30 cm) saturated with residual water and TCE; (2) a contaminated pre-column (2.5 cm×60 cm) saturated with water and TCE; and (3) an uncontaminated secondary column (2.5 cm×30 cm) saturated only with water.
The primary column was mounted in a vertical configuration and a burette with 100 cc of deionized water was mounted above the column and attached to the inlet. The valve on the burette was opened and water was allowed to gravity drain into the column. After approximately one pore volume of water had entered the column, the burette was disconnected and the column was allowed to continue to gravity drain. Air was flushed through the column to displace any mobile water. The difference between the water injected and the water produced was used to determine the residual water saturation.
Next, approximately 5 cc of TCE, enough to produce a residual saturation, was injected into the primary column using a syringe and allowed to gravity drain. After draining overnight, the column was weighed for a more accurate estimate of TCE saturation. […] In both cases, water and TCE injection, the pre-column was treated in the same manner. However, larger amounts of water and TCE were injected since the pre-column is twice as large.
The primary column and pre-column were plumbed into the flowpath. Air flow was through the precolumn, past the reference side of the thermal conductivity detector (TCD), to the test column and then to the measurement side of the TCD. Two injectors, one for the gas tracers (Valco Instruments'switching valve with sample loop) and one for liquid tracers (heated injection port) were located between the reference side of the TCD and the test column. Flow rates were adjusted by the use of a snubber valve located between the precolumn and TCD. Flow rates were monitored and measured by a combination of rotameters and a bubble meter. The TCD measures the difference between the reference stream and the effluent of the test column. Additionally, water-filled manometers were affixed to each end of the column to measure pressure drops across the column.
Approximately 4 to 8 hours was required for the air stream to equilibrate and for a stable baseline to be established. When the baseline was stable, tracer injections began. Data collected from the TCD were integrated and the integration values stored to computer files data acquisition software.
After the uncontaminated column experiment had been completed, the contaminated column experiments were begun. […] The mean residence time for production of each tracer was calculated from the response curves using the method of moments. This value can be expressed in minutes or converted to volume units by multiplying by the flow rate.

[3] = Partitioning tracer column experiment, PCE-contaminated water-saturated Ottawa sand (Example 1); assay type: physicochemical; conditions: water-saturated sand with residual PCE
Description: A soil column experiment was performed to illustrate the use of partitioning tracers to detect DNAPL in a saturated zone. A Kontes preparative chromatography column made of borosilicate glass (4.8 cm ID) was packed with-mesh sizes of 60 to 200 Ottawa sand and saturated with water at 23° C. The length of this sandpack was 12.24 cm. The porosity and intrinsic permeability to water were measured and found to be 0.329 and 5.84 Darcy, respectively. […] Two alcohol tracers were added to the water and 0.52 pore volumes of water containing these tracers were injected at 0.316 ml/min followed by several more pore volumes of water until the alcohols could no longer be detected in the effluent. […] The partition coefficients of each of these alcohols were determined by equilibrating samples containing in the range of 100 to 1,000 mg/l of both alcohols with equal volumes of water and PCE and measuring the alcohol concentrations in each phase using a gas chromatograph. […]
The separation of the two curves gives an unmistakable signal that the sand is contaminated with PCE. […] This value agrees with the value measured from a mass balance on the PCE within the experimental error of each of the measurements. The tracer curves were then numerically simulated using this value and the measured partition coefficients and these are the curves shown in FIG. 1. […]

[4] = Partitioning tracer column experiment, field soil contaminated with TCE; assay type: physicochemical; conditions: for Activity Coefficient, γi, in field soil: field soil contaminated with TCE
[5] = cited from earlier work
[6] = Partitioning tracer column experiment after surfactant remediation of the sand (Example 2); assay type: physicochemical; conditions: no NAPL present
Source text: The contaminated sand from Example 1 was cleaned by flushing the sand with an aqueous solution of surfactant until all the trichloroethene was removed to thereby simulate a successful remediation. The procedure of Example 1 was then repeated.

[7] = water; cited from earlier work
[8] = Batch equilibrium measurement of the partition coefficient with TCE; assay type: physicochemical
Source text: Since a rate dependence was observed, the rate was lowered to 0.08 cc/min and the experiment repeated for C4 F8. In addition, a batch equilibrium measurement of the partition coefficient was made for this tracer. […] The residence time at 0.45 cc/min is about two hours and several times this may be required for equilibrium partitioning. As the partition coefficient increases, so does the residence time, so the heavier tracers should be less effected by nonequilibrium partitioning. In any case, once suitable tracers have been identified, as has been done here, either batch experiments or experiments at low rates or in longer columns (to give long residence times) can be conducted to determine the equilibrium partitioning coefficients needed for field application (assuming the residence time for the field test is long compared to the column test).

Row | Compound | Mean Residence Times ti ([2]; Ottawa sand, TCE) | Mean Residence Times ti (cc) ([2]; Ottawa sand, TCE) | Activity Coefficient, γi, in field soil [4] | Activity Coefficient, γi ([2]; Ottawa sand) | Vapor Press ([5]; @ 25 ° C.) | further results
1 | [Ar] [Argon] | 93.2 min | 41.9 cc | – | – | – | adsorption [1]: negligible; mean residence time [1]: 45 cc
2 | [3H]O[3H] [tritiated water] | – | – | – | – | – | partitioning / retardation in PCE-contaminated column [3]: does not partition
3 | FS(F)(F)(F)(F)F [SF6, Sulfur Hexafluoride] | 103.7 min | 46.7 cc | 17.2 | 11.6 | – | Vapor Press ([5]; @ 21 ° C.): 334 psi; partitioning into TCE (in words) [2]: small but experimentally significant partitioning
4 | CC(C)C(C)(C)O [DMB, 2,3dimethyl 2-butanol] | – | – | – | – | – | partitioning / retardation in PCE-contaminated column [3]: retarded relative to the IPA; tracer travel after remediation (in words) [6]: travel through the sand at the same rate
5 | FC(F)(F)C1(F)C(F)(F)C(F)(F)C(F)(F)C(F)(F)C1(F)F [C7 F14, perfluoromethylcyclohexane] | 362.6 min | 163.2 cc | 52.6 | 58.3 | 2.1 psi | –
6 | dodecafluorodimethylcyclobutane [C6 F12] | 204.4 min | 92.0 cc | 45 | 52.0 | 7.2 psi | adsorption [1]: negligible; mean residence time [1]: 45 cc; factor by which mean residence time differs from argon ([2]; primary column, TCE, Ottawa sand): more than two
7 | FC1=C(F)C(F)(F)C(F)(F)C1(F)F [C5 F8, Octafluorocyclopentene] | 235.0 min | 105.8 cc | 17.2 | 20.3 | 12.7 psi | –
8 | FC(F)(F)C1(F)C(F)(F)C(F)(F)C(F)(F)C(F)(C(F)(F)F)C1(F)F (stereo not shown) [C8 F16, perfluoro-1,3-dimethylcyclohexane] | 1055.0 min | 474.8 cc | 89.7 | 63.1 | 0.67 psi | –
9 | ClC=C(Cl)Cl [TCE, trichloroethylene] | – | – | – | – | – | vapor pressure ([5]; 20° C.): 1.16 psi; aqueous solubility [7]: 1385 milligrams/liter
10 | FC(F)(F)F [CF4, Carbon Tetrafluoride] | 95.1 min | 42.8 cc | – | – | – | partitioning into TCE in field soil (in words) ([4]; field soil): negligible partitioning; partitioning into TCE (in words) [2]: essentially zero; also recorded: negligible partitioning
11 | FC1(F)C(F)(F)C(F)(F)C1(F)F [C4 F8, Octafluorocyclobutane] | 131.4 min | 59.1 cc | 20.8 | 26.6 | – | partition coefficient, batch equilibrium [8]: about 4.7; Vapor Press ([5]; @ 21 ° C.): 40 psi; partition coefficient at 0.08 cc/min ([2]; 0.08 cc/min, Ottawa sand, TCE): about 4.7
